{
  "source": "patent US5969096A",
  "about": "(priority 1998, dated 1999)",
  "origin": "cited, not measured here",
  "molecular_target": "neuronal voltage-sensitive Ca2+ channels",
  "data": [
    {"substance": "ω-conotoxin GVIA", "values": [
      {"measurement": "affinity (Kd) for high-affinity targets", "value": "sub-picomolar"},
      {"measurement": "time for 50% of the peptide to dissociate", "value": "more than 7 hours"}
    ]}
  ]
}
